In publication PMC2920546, “Preclinical Pharmacology of BA-TPQ, a Novel Synthetic Iminoquinone Anticancer Agent” (Marine Drugs, 2010):

What was measured:
[1] = Binding to mouse plasma proteins (micro-ultrafiltration); assay type: in vitro ADME; conditions: non-Swiss albino, pooled mouse plasma
Method: The extent of binding to mouse plasma proteins by BA-TPQ was determined using a micro-ultrafiltration system as previously described. BA-TPQ was dissolved in methanol and added to pooled mouse plasma to yield final concentrations of 0.5 μM and 5.0 μM. Control solutions were prepared in methanol to account for non-specific binding of BA-TPQ to the filter membranes. Duplicate preparations of each concentration were incubated at 37 °C for 1 h, before being placed into the sample reservoirs of Amicon Centrifree® ultrafiltration tubes (30 kDa exclusion; Millipore Corporation, Bedford, MA, USA). The filter systems were then centrifuged at 3000 g (37 °C) for 30 min or until no solution remained in the reservoir. Aliquots were taken from each filtrate and analyzed using the validated HPLC method. The concentrations of the unfiltered plasma and control preparations were also determined using the same protocol and expressed as the “total drug” (T) present, while the amounts of BA-TPQ present in the filtrates were designated as “free drug” (F). The percentage of BA-TPQ bound to plasma proteins was calculated as follows:
(1) Percent Bound=[(T-F)/T]×100

[2] = Pharmacokinetics, excretion and strain comparison stated for CD-1 and nude mice together; assay type: in vivo
Method: (§1) Female ICR/CD-1 (18–20 g) mice were purchased from Harlan Laboratories (Indianapolis, IN), and female nude mice (nu/nu; 4–6 weeks) were purchased from Frederick Cancer Research and Development Center (Frederick, MD). All animal use and care procedures were approved by the Institutional Animal Care and Use Committee (IACUC) of the University of Alabama at Birmingham. All animals were fed with commercial diet and water ad libitum and were on an alternating 12 h light/dark cycle.
(§2) CD-1 and nude mice were randomly divided into groups of three, and were dosed either intravenously (5 mg/kg) or intraperitoneally (10 mg/kg) with BA-TPQ in PEG 400:ethanol:0.9% saline (57.1%:14.3%:28.6%). Before dosing, and at 5, 15, 30, 60 min, and 2, 4, 8, and 24 h after dosing, groups of animals (three/time point) were anesthetized, and blood was collected from the retro-orbital sinus into heparinized tubes. Plasma was obtained by centrifuging the blood samples at 14,000 rpm for 15 min. BA-TPQ was then extracted from plasma and stored at −80 °C. The brain, heart, kidneys, liver, lungs, and spleen were also collected at the same time points during necropsy, blotted on Whatman No. 1 filter paper, trimmed of extraneous fat and connective tissue, weighed, and homogenized in phosphate-buffered saline. The resulting homogenates were stored at −80 °C until further processing and analysis. Urine and feces were collected for 24 hr from mice housed in metabolic cages. After collection, the cages were also washed twice with 200 μL PBS, and the washes were collected and analyzed separately. The total urine was determined as the amount from the urine plus washes 1 and 2. Feces were homogenized in PBS, then extracted using the same procedure used for tissues.
(§3) Six hundred microliters of acetonitrile was added to 200 μL of plasma, urine, cage washes (first and second), or tissue/feces homogenate in an Eppendorf tube to precipitate proteins. After centrifugation at 14,000 rpm for 10 min, the supernatant was transferred to a glass tube and evaporated to dryness using a TurboVap® LV Concentration Workstation (Caliper Lifesciences, Hopkinton, MA). The residue was reconstituted with 500 μL ethyl acetate, sonicated for 10 min, and vortexed for 10 sec. Samples were then centrifuged again and the resulting supernatant was transferred to a new glass tube and evaporated to dryness. Finally, samples were reconstituted in 100 μL mobile phase, and 50 μL was injected into the HPLC system for analysis.
(§4) The averages of the BA-TPQ concentration in plasma and tissues following intravenous and intraperitoneal administration to three animals per time point were used for pharmacokinetic analyses using a two-compartmental model and a non-compartment model, respectively. The following pharmacokinetic parameters were estimated using Phoenix WinNonlin 6.0 (Mountain View, CA): area under the concentration-time curve (AUC, h·μg/mL), half-life (T½, h), maximum concentration (Cmax, μg/mL), time of the maximum concentration (Tmax, h), and clearance (CL, mL/h/kg), as applicable. Bioavailability (X) was calculated as X= [AUCip × doseiv]/[AUCiv × doseip].

[3] = Pharmacokinetics and tissue distribution in CD-1 mice; assay type: in vivo
Method: as §1, §2, §3, §4

[4] = IV 5 mg/kg, both strains, 24 hr collection
[5] = female, ICR/CD-1, mouse, liver, IV 5 mg/kg
[6] = female, ICR/CD-1, mouse, lungs, IP 10 mg/kg
[7] = female, ICR/CD-1, mouse, lungs, IV 5 mg/kg
[8] = female, mouse, brain, IP 10 mg/kg
[9] = female, mouse, brain, IV 5 mg/kg
[10] = female, mouse, heart, IP 10 mg/kg
[11] = female, mouse, heart, IV 5 mg/kg
[12] = female, mouse, kidneys, IP 10 mg/kg
[13] = female, mouse, kidneys, IV 5 mg/kg
[14] = female, mouse, liver, IP 10 mg/kg
[15] = female, mouse, lungs, IV 5 mg/kg
[16] = female, mouse, plasma, IP 10 mg/kg
[17] = female, mouse, plasma, IV 5 mg/kg
[18] = female, mouse, spleen, IP 10 mg/kg
[19] = female, mouse, spleen, IV 5 mg/kg

Question: Which fraction unbound at 1 h ([1]; mouse, read-out: Bound to plasma proteins (overall) (converted)) does the source give for `O=C1C(NCc2ccccc2)=CC2=NCCc3c[nH]c1c32` [BA-TPQ, 7-(benzylamino)-1,3,4,8-tetrahydropyrrolo[4,3,2-de]quinolin-8(1H)-one] here?
Answer: Its fraction unbound at 1 h is roughly 0.3.

Question: What about the fraction unbound at 1 h, 0.5 μM ([1]; mouse plasma, 0.5 μM, read-out: Bound to plasma proteins (converted)) of the same compound?
Answer: The fraction unbound at 1 h, 0.5 μM was 0.37.

Question: What about the fraction unbound at 1 h, 5 μM ([1]; mouse plasma, 5.0 μM, read-out: Bound to plasma proteins (converted)) of the same compound?
Answer: Its fraction unbound at 1 h, 5 μM is 0.26.

Question: What about the “Amount excreted in the feces” value ([2]; IP 10 mg/kg) of the same compound?
Answer: The value was “less than 1%”.

Question: And the “Amount excreted in the urine” value ([2]; IP 10 mg/kg, first 24 h after dosing)?
Answer: Its value is “less than 0.02 % of the administered dose”.

Question: What about the “AUC in the brain, nude mice versus CD-1 mice” value ([2]; IP injection) of the same compound?
Answer: The value was ~ 5 fold.

Question: What about the “Accumulation in the liver, nude mice versus CD-1 mice” value ([2]; IP injection) of the same compound?
Answer: Its value is ~ 18 fold.

Question: And the “Detectability in the lungs at 24 h” value ([2]; IV 5 mg/kg, both CD-1 and nude mice)?
Answer: Its value is “still detectable”.

Question: And the “Amount excreted in feces” value [2, 4]?
Answer: The value was “less than 1 % of the administered dose”.

Question: And the “Amount excreted in the urine” value [2, 4]?
Answer: The value was “less than 0.1 % of the administered dose”.

Question: And the Detectability in plasma ([2]; IV 5 mg/kg, either strain of mice)?
Answer: The Detectability in plasma was “no longer detectable in plasma after 2 h”.

Question: What about the “Exposure of the heart (AUC), nude mice versus CD-1 mice” value ([2]; IV injection) of the same compound?
Answer: Its value is “approximately 6 fold”.

Question: What about the bioavailability ([2]; female, CD-1 and nude (nu/nu), mouse, plasma, ip, 10 mg/kg, mice, IP injection, read-out: Intraperitoneal bioavailability (authors' overall estimate)) of the same compound?
Answer: The bioavailability was roughly 70%.

Question: And the “Blood-brain barrier passage (AUC in brain comparable to plasma)” value ([2]; mice)?
Answer: The value was “can cross the blood-brain barrier”.

Question: And the “Intraperitoneal bioavailability (authors' overall estimate)” value ([2]; mice, IP injection)?
Answer: The value was greater than 70%.

Question: What about the “Time of greatest plasma concentration” value ([3]; IP 10 mg/kg) of the same compound?
Answer: The value was 15 min.

Question: What about the Cl ([3]; brain, IP 10 mg/kg) of the same compound?
Answer: Its Cl is 2920 mL/min/kg.

Question: And the AUC [3, 5]?
Answer: The AUC was 650 ng·h/mL.

Question: What about the Cmax [3, 5] of the same compound?
Answer: The Cmax was 690 ng/mL.

Question: What about the clearance [3, 5] of the same compound?
Answer: The clearance was 900 mL/min/kg.

Question: And the half-life [3, 5]?
Answer: The half-life was 39 min.

Question: And the AUC [3, 6]?
Answer: Its AUC is 9150 ng·h/mL.

Question: And the Cmax [3, 6]?
Answer: The Cmax was 12400 ng/mL.

Question: What about the Tmax [3, 6] of the same compound?
Answer: Its Tmax is 4.8 min.

Question: And the half-life [3, 6]?
Answer: The half-life was 30 min.

Question: What about the AUC [3, 7] of the same compound?
Answer: The AUC was 4980 ng·h/mL.

Question: What about the clearance [3, 7] of the same compound?
Answer: Its clearance is 117 mL/min/kg.

Question: What about the AUC [3, 8] of the same compound?
Answer: Its AUC is 190 ng·h/mL.

Question: And the Cmax [3, 8]?
Answer: The Cmax was 180 ng/mL.

Question: What about the Tmax [3, 8] of the same compound?
Answer: The Tmax was 15 min.

Question: What about the half-life [3, 8] of the same compound?
Answer: The half-life was 49.8 min.

Question: What about the AUC [3, 9] of the same compound?
Answer: Its AUC is 220 ng·h/mL.

Question: And the Cmax [3, 9]?
Answer: The Cmax was 750 ng/mL.

Question: What about the clearance [3, 9] of the same compound?
Answer: Its clearance is 2630 mL/min/kg.

Question: What about the half-life [3, 9] of the same compound?
Answer: Its half-life is 12.6 min.

Question: What about the AUC [3, 10] of the same compound?
Answer: The AUC was 4660 ng·h/mL.

Question: And the Cmax [3, 10]?
Answer: Its Cmax is 7240 ng/mL.

Question: And the Tmax [3, 10]?
Answer: The Tmax was 4.8 min.

Question: And the half-life [3, 10]?
Answer: Its half-life is 42.6 min.

Question: And the AUC [3, 11]?
Answer: Its AUC is 1020 ng·h/mL.

Question: What about the Cmax [3, 11] of the same compound?
Answer: Its Cmax is 5340 ng/mL.

Question: And the clearance [3, 11]?
Answer: The clearance was 567 mL/min/kg.

Question: And the half-life [3, 11]?
Answer: The half-life was 7.8 min.

Question: What about the AUC [3, 12] of the same compound?
Answer: The AUC was 8060 ng·h/mL.

Question: What about the Cmax [3, 12] of the same compound?
Answer: The Cmax was 8360 ng/mL.

Question: What about the Tmax [3, 12] of the same compound?
Answer: Its Tmax is 15 min.

Question: What about the half-life [3, 12] of the same compound?
Answer: The half-life was 28.8 min.

Question: And the AUC [3, 13]?
Answer: The AUC was 2830 ng·h/mL.

Question: What about the Cmax [3, 13] of the same compound?
Answer: Its Cmax is 9680 ng/mL.

Question: What about the clearance [3, 13] of the same compound?
Answer: Its clearance is 200 mL/min/kg.

Question: And the half-life [3, 13]?
Answer: Its half-life is 12 min.

Question: And the AUC [3, 14]?
Answer: Its AUC is 150 ng·h/mL.

Question: What about the Cmax [3, 14] of the same compound?
Answer: Its Cmax is 470 ng/mL.

Question: And the Tmax [3, 14]?
Answer: The Tmax was 4.8 min.

Question: And the half-life [3, 14]?
Answer: Its half-life is 14.4 min.

Question: What about the Cmax [3, 15] of the same compound?
Answer: The Cmax was 13000 ng/mL.

Question: And the half-life [3, 15]?
Answer: The half-life was 15.6 min.

Question: What about the AUC [3, 16] of the same compound?
Answer: The AUC was 110 ng·h/mL.

Question: And the Cmax [3, 16]?
Answer: The Cmax was 110 ng/mL.

Question: And the Tmax [3, 16]?
Answer: Its Tmax is 4.8 min.

Question: What about the half-life [3, 16] of the same compound?
Answer: Its half-life is 51.6 min.

Question: What about the bioavailability ([3]; female, mouse, plasma, IP 10 mg/kg vs IV 5 mg/kg, read-out: Intraperitoneal bioavailability) of the same compound?
Answer: The bioavailability was 74%.

Question: And the AUC [3, 17]?
Answer: Its AUC is 70 ng·h/mL.

Question: And the Cmax [3, 17]?
Answer: Its Cmax is 360 ng/mL.

Question: What about the clearance [3, 17] of the same compound?
Answer: The clearance was 8200 mL/min/kg.

Question: What about the half-life [3, 17] of the same compound?
Answer: Its half-life is 8.4 min.

Question: And the AUC [3, 18]?
Answer: The AUC was 11300 ng·h/mL.

Question: And the Cmax [3, 18]?
Answer: Its Cmax is 23000 ng/mL.

Question: What about the Tmax [3, 18] of the same compound?
Answer: The Tmax was 4.8 min.

Question: What about the half-life [3, 18] of the same compound?
Answer: Its half-life is 24.6 min.

Question: And the AUC [3, 19]?
Answer: Its AUC is 1800 ng·h/mL.

Question: And the Cmax [3, 19]?
Answer: Its Cmax is 4590 ng/mL.

Question: And the clearance [3, 19]?
Answer: The clearance was 317 mL/min/kg.

Question: And the half-life [3, 19]?
Answer: The half-life was 16.2 min.

Question: What about the Cl ([3]; heart, IP 10 mg/kg) of the same compound?
Answer: Its Cl is 130 mL/min/kg.

Question: And the Cl ([3]; kidneys, IP 10 mg/kg)?
Answer: Its Cl is 67 mL/min/kg.

Question: And the Cl ([3]; liver, IP 10 mg/kg)?
Answer: The Cl was 4100 mL/min/kg.

Question: What about the Cl ([3]; lungs, IP 10 mg/kg) of the same compound?
Answer: Its Cl is 67 mL/min/kg.

Question: What about the Cl ([3]; plasma, IP 10 mg/kg) of the same compound?
Answer: The Cl was 5750 mL/min/kg.

Question: What about the “Concentration in the plasma for the first 30 minutes” value ([3]; single bolus IV 5 mg/kg) of the same compound?
Answer: The value was “up to 0.18 μg/mL”.

Question: And the Cl ([3]; spleen, IP 10 mg/kg)?
Answer: The Cl was 50 mL/min/kg.
